The text below walks through data of US20060257875A1, “Affinity screening using "one-bead-one-compound" libraries” (Carlsberg A/S, priority 2003, published 2006).

The subject of assay [1] is PE-induced myocyte protein. Nature of the assay: Solid phase screening of Library 6 with unlabeled myocyte proteins; silver staining, on-bead tryptic digest. In kind it is binding, neonatal Wistar rats. As to conditions: PE-Treated Myocytes. Here is the method:
(§1) Myocytes were prepared from 1 to 5 day old neonatal Wistar rats (University of Copenhagen) according to literature procedure described in Busk et al., 2002, Cardiovasc. Res., 56: 64-75 and plated into eight P10 culture plates at 6 million cells/plate.
Isolated proteins that bound to specific ligands were identified using peptide mass fingerprinting. Mass spectra were recorded on a Bruker Reflex m MALDI time-of-flight mass spectrometer (Bruker-Daltonics, Bremen, Germany) operated in the positive reflectron mode using delayed extraction. Measurements were performed using the following parameters: Power 83-84 V; lens 7.300. The sum of 200-300 shots was used for each spectrum.
The spectra were calibrated using bradykinin peptide. In some cases, internal mass calibration was performed using a porcine trypsin autolysis product Peptide masses were searched against peptide mass maps in the National Center for Biotechnology Information (NCBI) database using the following search engines found on the world wide web (www.) for each of: • MS-FIT (prospector.ucsf.edu/ucsfhtml/msfit.htm), • Profound (129.85.19.192/profound_biniWebProFound.exe), and • MASCOT (matrixscience.com).
A search was performed using the NCBI bacterial (E. coli) database and the mammalian databases for the isolated proteins from the E. coli and myocyte samples, respectively, and the Swiss Prot mammalian databases and the Swiss Prot viral databases were searched to identify the porcine macrophage proteins and proteins, respectively. A molecular mass range was estimated from 0-250 K Da, allowing a mass accuracy that varied from 0.1 Da (some cases 0.3 Da) for each peptide mass. A large pI range from 0-14 or 0-12 was considered for each search. If no proteins matched, the mass window was extended. Partial enzyme cleavages allowing for two missed cleavage sites and modification of cysteine by alkylation were considered in the search approaches. A protein was considered identified if the matched peptides covered at least 30% of the complete sequence. A match of less than 30% was considered in some cases, if prominent peaks were obtained. Usually, four or more peptides were used for identification. In some instances, hypothetical proteins or gene products, such as biochemical material, either RNA or protein, calculated from the expected expression of a gene and to which a function may be assigned based on sequence homology, were identified.
Protein was extracted from myocytes prepared as described above for Example 9, using a new procedure (to preserve the activity of metalloproteases) modified from existing protocols, primarily: Amott, et al., 1998, Anal. Biochem. 258: 1-18. The media was removed from plates and cells were washed with ice cold phosphate buffer (5 ml, 10 mM, pH 7.5, supplemented with 0.15 M NaCl,) to remove traces of media components. The adhered cells were treated for 10 minutes with ice cold phosphate buffer (2 mL, 10 mM, pH 7.5, augmented with 0.15 M NaCl, […] E-64, 10 μg/mL Leupeptin, and 10 μg/mL Pepstatin A). The cells were scraped off the plates and then lysed (on ice) in a sonicator (2×) using 10 seconds off/110 seconds on cycles.
The resulting suspension was augmented with CHAPS (1% w/v), KCl (50 mM), NaCl (0.5 M), ZnCl2 (0.1 mM), DTT (5 mM), and urea (2 M). After 10-15 minutes on ice, the solution was centrifuged for 10 minutes at 15,000 rpm at 4° C. The supernatant was removed and protein content quantified using the NanoOrange Protein test (Molecular Probes, Eugene, Oreg.): Total protein recovered: 195 μg for PE-induced cells and 200 μg for basal cells.
The protein solutions were dialyzed extensively against 20 mM MES (2-[N-Morpholino]ethanesulfonic acid) buffer pH 6.0, supplemented with 0.15 M NaCl and 1 mM ZnCl2 to remove excess detergent and urea. […]

Assay [2] deals with Serum induced (hypertrophied) Myocytes proteins. Nature of the assay: Solid phase screening of small molecule biaryl Library 7 with labeled myocyte proteins. The format is binding, neonatal Wistar rats.
Assay [3] deals with normal porcine macrophage proteins. Briefly: Solid phase screening of Library 4 with labeled porcine viral and macrophage proteins. The format is binding. As to conditions: Normal Macrophages. An excerpt:
Alternatively, the fluorescent ligand library beads containing bound protein obtained as described in Examples 47, 48, 49 and 51 were sorted using a COPAS (250) NF Bead Sorter (Union Biometrica, Somerville, Mass.) equipped with a dual detector. Both the cyanine dyes used in the labeling procedure, namely Cy 2 (emission wavelength—510 nm) and Cy 3 (emission wavelength—570 nm) were simultaneously excited at […] The bead selection window was then set-up such that all beads containing significant green fluorescence and no red flourescence were isolated. The unselected beads were then resorted to obtain beads containing red fluorescence (proteins from basal cells). […]
(§2) A typical analysis employed 100-300 laser shots. […] The possible identity of the ligand was determined (Narrowed down) by comparing the recorded mass of the ligand with the masses of all possible compounds formed in the library. […]
(§3) Isolated proteins that bound to specific ligands were identified using peptide mass fingerprinting. Mass spectra were recorded on a Bruker Reflex m MALDI time-of-flight mass spectrometer (Bruker-Daltonics, Bremen, Germany) operated in the positive reflectron mode using delayed extraction. […]

Assay [4] deals with basal myocyte protein. Nature of the assay: Solid phase screening of Library 5 with labeled myocyte protein. The format is binding, neonatal Wistar rats. The conditions noted are these: Normal Myocytes. Here is the method:
as §1
Protein was extracted from myocytes prepared as described above for Example 9, using a new procedure modified from existing protocols, primarily: Arrott, et al., 1998, Anal Biochem. 258: 1-18. The media was removed from plates and adhered cells were treated for 10 minutes with ice cold phosphate buffer (0.25 mL, 10 mM, pH 7.5, augmented with 0.15 M NaCl 60 mM Benzamidine HCl, 5 mM EDTA, 10 μg/n E-64, 10 μg/mL Leu-peptin, 10 μg/mL Pepstatin A, and 1 mM PMSF). The cells were scraped off the plates and then lysed (on ice) in a sonicator (2×) using 10 seconds off/10 seconds on cycles.
The resulting suspension was augmented with CHAPS, DTT, and urea to a final concentration of CHAPS (1% w/v), DTT (5 mM), and urea (8 M). After 10-15 minutes on ice, the solution was centrifuged for 10 minutes at 15,000 rpm at 4° C. The supernatant was removed and protein content quantified using the NanoOrange Protein test (Molecular Probes, Eugene, Oreg.): Total protein recovered: 70.5 μg for PE-treated cells and 60 μg for basal cells.
Fluorescent dye Oregon Green 514 (OR) (Molecular Probes) was used to label the healthy/basal cells while Rhodamine Red (RR) (Molecular Probes) was used to label the PE-treated cells. The labeling procedures were carried out according to the manufacturer's protocol. […]
as §2, §3

Assay [5] has as its system Serum induced Myocytes proteins. The assay is described as above. The format is binding, neonatal Wistar rats.
Assay [6] deals with isoleucine tRNA synthetase (Escherichia coli, UniProt P00956). As to conditions: Merck Manual; cited from earlier work.
Sequence of isoleucine tRNA synthetase (P00956 whole entry): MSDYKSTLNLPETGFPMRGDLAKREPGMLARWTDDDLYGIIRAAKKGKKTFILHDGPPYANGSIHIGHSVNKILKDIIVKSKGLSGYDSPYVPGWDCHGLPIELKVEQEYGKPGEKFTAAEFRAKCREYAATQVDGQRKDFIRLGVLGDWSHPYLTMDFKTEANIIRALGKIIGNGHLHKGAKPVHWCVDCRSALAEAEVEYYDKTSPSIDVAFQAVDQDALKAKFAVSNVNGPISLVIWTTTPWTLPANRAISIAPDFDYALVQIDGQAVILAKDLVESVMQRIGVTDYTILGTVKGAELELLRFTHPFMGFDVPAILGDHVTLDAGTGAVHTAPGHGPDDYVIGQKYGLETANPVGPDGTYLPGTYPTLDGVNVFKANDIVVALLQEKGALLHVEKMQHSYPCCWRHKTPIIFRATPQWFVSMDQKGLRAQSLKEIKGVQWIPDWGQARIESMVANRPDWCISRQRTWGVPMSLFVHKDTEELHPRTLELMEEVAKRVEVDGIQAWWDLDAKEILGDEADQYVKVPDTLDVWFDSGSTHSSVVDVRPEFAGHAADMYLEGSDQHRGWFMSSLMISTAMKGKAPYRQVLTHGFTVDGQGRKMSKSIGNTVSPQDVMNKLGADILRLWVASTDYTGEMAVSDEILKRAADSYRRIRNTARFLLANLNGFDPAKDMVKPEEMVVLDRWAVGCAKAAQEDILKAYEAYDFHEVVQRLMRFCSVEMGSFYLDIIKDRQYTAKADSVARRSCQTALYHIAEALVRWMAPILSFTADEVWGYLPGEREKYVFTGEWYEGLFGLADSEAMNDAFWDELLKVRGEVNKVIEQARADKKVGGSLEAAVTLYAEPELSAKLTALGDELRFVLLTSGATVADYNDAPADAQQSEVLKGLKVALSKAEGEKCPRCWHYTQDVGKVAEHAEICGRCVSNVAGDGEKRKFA
Assay [7] has as its system Myocytes. Nature of the assay: Proliferation of myocytes with phenylephrine (in vitro model of hypertrophy). In kind it is cell-based, neonatal Wistar rats. As to conditions: 10 μM phenylephrine (PE); cells grown for two more days.

In the case of `CC(C)C(NC(CCCCN)C(=O)NCC(=O)O)C(C)C` (stereo not shown), the “Identified Protein(s)” value in assay [1] is reported as “Glycogen ssynthase kinase-3 beta factor (AQ9WV60)”. In the case of `O=C(O)CNC(=O)c1ccc(-c2ccco2)o1`, the “Identified Protein(s)” value in assay [2] is on record as “Serine-threonine kinase (gi 474842); Hemopexin precur- sor (Beta-1B-glycoprotein) (P02790); 116 kDa U5 small nuclear ribonucleoprotein component (O08810)”. On to `COc1ccc(Br)c(OC)c1C(=O)NC1(C(=O)O)CCCCC1`, for which the “Identified Protein(s)” value in assay [2] was “Translin-associated protein X (Q99598); Hypothetical Protein ORF-1137 (P11260); Integrin alpha-1 (Laminin and collagen receptor VLA-1,CD49a) (P56199_”.

In the case of `C[C@H](NC(=O)[C@@H]1CCCCNC(=O)N1)C(=O)O` [HY1], in assay [3], the “Identified Protein(s)” value is listed as “Protein kinase C binding protein 1 also contains a zinc finger domain with protein 8) (Q9U1U4); Guanine nucle- otide-binding protein G(S), alpha subunit (Adenylate cy- clase-stimulating G alpha protein) (P048949)”. `O=C1NCCC[C@@H](C(=O)N[C@@H](CCc2ccccc2)C(=O)O)N1` [HY2]: the “Identified Protein(s)” value in assay [3] was “Protein kinase byr2 (Protein kinase ste8) (MAP kinase) (P28829); Similar to protein kinase 2 (Testicular) (Q885R6); Thiamine-triphosphatase (Q8CgV7)”. Turning to `O=C(O)c1ccc(CN2C[C@@H](CN(C(=O)c3ccccc3)C3(C(=O)O)CCCC3)N3C(=O)c4ccccc4[C@H]23)cc1` [HY3], the “Identified Protein(s)” value in assay [4] was “NADH-ubiquinone oxidoreductase B14 subunit (Q9CQZ5)”. In the case of `O=C1c2ccccc2[C@@H]2N(Cc3ccc(O)cc3)C[C@@H](CN(C(=O)CCc3ccccc3)C3(C(=O)O)CCCC3)N12` [HY4], the “Identified Protein(s)” value in assay [4] is listed as “NADH-ubiquinone oxidoreductase B14 subunit (Q9CQZ5)”. The same measure, in the same setting: the value for `CC(CCc1ccccc1)N1C[C@@H](CN2Cc3ccccc3CC2C(=O)O)N2C(=O)c3ccccc3[C@H]12` (stereo partly shown) [HY5] was “Myosin Va (Myosin 5A, dilute myosin heavy chain, non muscle (Q9Y411)”. For `CC(=O)N(C[C@@H]1CN(Cc2ccc(C(=O)O)cc2)[C@H]2c3ccccc3C(=O)N12)C1(C(=O)O)CCCC1` [HY6], in assay [5], the “Identified Protein(s)” value is on record as “Myosin chain (Q63358); NF-kappa B-repressing factor (Transcription factor ITBA4 protein) (O15226)”. For `CC(=O)N(C[C@@H]1CN(C(C)C)[C@H]2c3ccccc3C(=O)N12)[C@H]1CCCCN(CC(=O)O)C1=O` [HY7], the “Identified Protein(s)” value in assay [5] was “Zinc finger protein 339 (Q9BRPO); DNA repair protein RAD52 homolog (P43351)”. Take `CCC(C)C(=O)N(C[C@@H]1CN(C(C)C)[C@H]2c3ccccc3C(=O)N12)[C@H]1CCCCN(CC(=O)O)C1=O` (stereo partly shown) [HY8]: the “Identified Protein(s)” value in assay [5] is “Zinc finger protein 339 (Q9BRPO); DNA repair protein RAD52 homolog (P43351)”. On to `CC(C)N1CCCC(CN[C@H]2CCCCN(CC(=O)O)C2=O)N2C(=O)c3ccccc3[C@H]12` (stereo partly shown) [HY9], for which the “Identified Protein(s)” value in assay [5] is “Zinc finger protein 339 (Q9BRPO); DNA repair protein RAD52 homolog (P43351)”.

As for `C/C(=C\C(=O)OCCCCCCCCC(=O)O)C[C@@H]1OC[C@H](C[C@@H]2O[C@H]2[C@@H](C)[C@H](C)O)[C@@H](O)[C@H]1O` [Mupirocin], the “inhibition of isoleucine tRNA synthetase” value in assay [6] was “inhibits the enzyme isoleucine tRNA synthetase”. As for `CNC[C@H](O)c1cccc(O)c1` [PE, phenylephrine], in assay [7], the “cell size at time of harvest” value is “significantly enlarged”. As for `CCOC(=O)C(CCc1ccccc1)NC(CCCCN)C(=O)N1CCC[C@H]1C(=O)O` (stereo partly shown) [drawing 175], the “Identified Protein(s)” value in assay [1] was “Angiotensin converting enzyme (P22967); U2 nuclear ribonucleoprotein auxiliary factor (gi 2842676)”. `CCCCCCNC(=O)C(CCCCN)NC(C(C)C)C(C)C` (stereo not shown) [drawing 179]: the “Identified Protein(s)” value in assay [1] was “Heat Shock protein 70 kDa protein 12A (Q8KOU4)”.
